# From patent US11986471B2, “Compounds and methods of use” (Tango Therapeutics, Inc., priority 2018, dated 2024)
# How the values were obtained:
# PRMT5 [1] = target: T1, PRMT5 (Homo sapiens, UniProt O14744); assay: PRMT5 IC50 assay in the presence of MTA as cofactor; format: biochemical; conditions: for IC50: PRMT5, MTA as cofactor; for SAM/MTA Ratio: ratio between Ki in the presence of SAM and Ki in the presence of MTA
# T1 construct: purchased Viva (custom protein)
# Outline: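 MTA-dependent versus SAM-dependent inhibition of human PRMT5 was assessed by IC50; conversion factors of 13.5 and 1.5 gave the corresponding Ki.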
# PRMT5 [2] = target: T1, PRMT5; assay: PRMT5 IC50 assay with no cofactor; format: biochemical; conditions: read-out: No Co-factor IC50
# Outline: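 Ki conversion: SAM arm, Ki=IC50/1.5; MTA arm, Ki=IC50/13.5. No-cofactor arm reported as IC50 only. Selectivity expressed as Ki(SAM)/Ki(MTA).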
# PRMT5 [3] = target: T1, PRMT5; assay: PRMT5 IC50 assay in the presence of SAM as cofactor; format: biochemical
# Outline: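 Three cofactor conditions are run: SAM-bound, MTA-bound and cofactor-free enzyme. IC50 is read from each; for the SAM and MTA arms it is divided by 1.5 and 13.5 respectively to give Ki.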
# HAP1 MTAP-intact = assay: SDMA in-cell western assay, HAP1 MTAP-intact cell line; format: cell-based; conditions: Homo sapiens
# Outline: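 Using an MTAP-isogenic HAP1 cell pair, inhibition of SDMA formation is read by in-cell western and expressed as IC50. MTAP-selectivity is assigned where the ratio between lines reaches 3 fold or greater.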
# HAP1 MTAP-deleted = assay: SDMA in-cell western assay, HAP1 MTAP-deleted cell line; format: cell-based; conditions: for IC50: Homo sapiens, HAP1 MTAP-deleted cell line; for MTAP Intact/Deleted Ratio: IC50 ratio HAP1 MTAP-intact / HAP1 MTAP-deleted
# Outline: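 In-cell western for SDMA marks; MTAP-deleted (null) HAP1 background; values given as IC50.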
# T1 sequence (O14744 whole entry): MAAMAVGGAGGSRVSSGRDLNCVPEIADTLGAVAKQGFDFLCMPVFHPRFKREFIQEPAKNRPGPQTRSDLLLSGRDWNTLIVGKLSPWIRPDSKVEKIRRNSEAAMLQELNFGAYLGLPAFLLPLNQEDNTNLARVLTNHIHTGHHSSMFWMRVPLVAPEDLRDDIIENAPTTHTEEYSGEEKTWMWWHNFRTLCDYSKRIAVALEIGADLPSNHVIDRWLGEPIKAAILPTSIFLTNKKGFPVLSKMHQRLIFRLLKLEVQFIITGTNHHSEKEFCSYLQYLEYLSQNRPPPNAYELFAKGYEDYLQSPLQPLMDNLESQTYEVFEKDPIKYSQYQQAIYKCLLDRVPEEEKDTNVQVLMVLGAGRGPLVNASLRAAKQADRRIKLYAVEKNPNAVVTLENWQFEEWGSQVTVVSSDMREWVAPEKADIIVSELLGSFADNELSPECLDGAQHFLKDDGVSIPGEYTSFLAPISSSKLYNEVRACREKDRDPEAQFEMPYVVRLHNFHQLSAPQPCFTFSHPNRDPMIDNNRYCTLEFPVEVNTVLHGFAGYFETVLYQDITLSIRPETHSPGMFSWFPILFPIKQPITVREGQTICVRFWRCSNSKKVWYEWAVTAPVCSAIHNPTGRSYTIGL
# T1 sequence (Q9BQA1 whole entry partner): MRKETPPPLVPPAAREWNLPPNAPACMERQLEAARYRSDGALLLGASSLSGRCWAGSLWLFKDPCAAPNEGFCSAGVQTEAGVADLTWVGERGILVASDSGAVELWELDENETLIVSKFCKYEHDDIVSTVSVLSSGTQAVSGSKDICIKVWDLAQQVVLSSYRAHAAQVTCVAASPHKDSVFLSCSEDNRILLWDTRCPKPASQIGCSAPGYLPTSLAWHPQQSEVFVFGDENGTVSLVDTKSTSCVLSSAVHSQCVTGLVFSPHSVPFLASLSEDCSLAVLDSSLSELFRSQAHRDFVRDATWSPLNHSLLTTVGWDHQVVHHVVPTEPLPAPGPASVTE
SMILES,IC50 (PRMT5 [1]),IC50 (PRMT5 [2]),IC50 (PRMT5 [3]),IC50 (HAP1 MTAP-intact),IC50 (HAP1 MTAP-deleted),SAM/MTA Ratio (PRMT5 [1]),MTAP Intact/Deleted Ratio (HAP1 MTAP-deleted)
CCN(C)c1nc(NC2COC2)cc(C(=O)NC[C@H](O)CN2CCc3cc(OCc4cnco4)ccc3C2)n1 [Compound 289],50 to 500 nM,500 to 5000 nM,50 to 500 nM,1000 to 10000 nM,1000 to 10000 nM,A (a Ki ratio greater than or equal to 10 fold between the Ki in the presence of SAM and the Ki in the presence of MTA),B* (an IC50 ratio greater than or equal to 3 fold but lower than 10 fold between the IC50 in the HAP1 MTAP-intact cell line and the HAP1 MTAP-deleted cell line)
"O=C(NC[C@H](O)CN1CCc2cc(OCc3cnco3)ccc2C1)c1cc(NC2COC2)nc(N2CCN(C(=O)C3CC3)CC2)n1 [Compound 290, (S)-2-(4-(cyclopropanecarbonyl)piperazin-1-yl)-N-(2-hydroxy-3-(6-(oxazol-5-ylmethoxy)-3,4-dihydroisoquinolin-2(1H)-yl)propyl)-6-(oxetan-3-ylamino)pyrimidine-4-carboxamide]",50 to 500 nM,500 to 5000 nM,50 to 500 nM,1000 to 10000 nM,1000 to 10000 nM,A (a Ki ratio greater than or equal to 10 fold between the Ki in the presence of SAM and the Ki in the presence of MTA),B* (an IC50 ratio greater than or equal to 3 fold but lower than 10 fold between the IC50 in the HAP1 MTAP-intact cell line and the HAP1 MTAP-deleted cell line)
"O=C(NC[C@H](O)CN1CCc2cc(OCc3cnco3)ccc2C1)c1ccc(OC2CCN(Cc3ccccc3)CC2)cc1 [Compound 291, (S)-4-((1-benzylpiperidin-4-yl)oxy)-N-(2-hydroxy-3-(6-(oxazol-5-ylmethoxy)-3,4-dihydroisoquinolin-2(1H)-yl)propyl)benzamide]",50 to 500 nM,500 to 5000 nM,50 to 500 nM,1000 to 10000 nM,1000 to 10000 nM,,C* (an IC50 ratio of less than 3 fold between the IC50 in the HAP1 MTAP-intact cell line and the HAP1 MTAP-deleted cell line)
"O=C(NC[C@H](O)CN1CCc2cc(OCc3cnco3)ccc2C1)c1cc(NC2CCC2)nc(N2CCOCC2)c1 [Compound 292, (S)-2-(cyclobutylamino)-N-(2-hydroxy-3-(6-(oxazol-5-ylmethoxy)-3,4-dihydroisoquinolin-2(1H)-yl)propyl)-6-morpholinoisonicotinamide]",50 to 500 nM,500 to 5000 nM,50 to 500 nM,≥ 10000 nM,1000 to 10000 nM,A (a Ki ratio greater than or equal to 10 fold between the Ki in the presence of SAM and the Ki in the presence of MTA),C* (an IC50 ratio of less than 3 fold between the IC50 in the HAP1 MTAP-intact cell line and the HAP1 MTAP-deleted cell line)
"CC(C)N1CCN(c2nc(NC3COC3)cc(C(=O)NC[C@H](O)CN3CCc4c(ccc(OCc5cnco5)c4Cl)C3)n2)CC1 [Compound 293, (S)—N-(3-(5-chloro-6-(oxazol-5-ylmethoxy)-3N-dihydroisoquinolin-2(1H)-yl)-2-hydroxypropyl)-2-(4-isopropylpiperazin-1-yl)-6-(oxetan-3-ylamino)pyrimidine-4-carboxamide]",50 to 500 nM,500 to 5000 nM,500 to 5000 nM,≥ 10000 nM,≥ 10000 nM,A (a Ki ratio greater than or equal to 10 fold between the Ki in the presence of SAM and the Ki in the presence of MTA),C* (an IC50 ratio of less than 3 fold between the IC50 in the HAP1 MTAP-intact cell line and the HAP1 MTAP-deleted cell line)
"CCCN(C)c1nc(NC2COC2)cc(C(=O)NC[C@H](O)CN2CCc3cc(OCc4cnco4)ccc3C2)n1 [Compound 294, (S)—N-(2-hydroxy-3-(6-(oxazol-5-ylmethoxy)-3,4-dihydroisoquinolin-2(1H)-yl)propyl)-2-(methyl(propyl)amino)-6-(oxetan-3-ylamino)pyrimidine-4-carboxamide]",50 to 500 nM,500 to 5000 nM,50 to 500 nM,1000 to 10000 nM,< 1000 nM,A (a Ki ratio greater than or equal to 10 fold between the Ki in the presence of SAM and the Ki in the presence of MTA),C* (an IC50 ratio of less than 3 fold between the IC50 in the HAP1 MTAP-intact cell line and the HAP1 MTAP-deleted cell line)

# More lines, main results first:
IC50 (PRMT5 [1]),IC50 (PRMT5 [2]),IC50 (PRMT5 [3]),IC50 (HAP1 MTAP-intact),IC50 (HAP1 MTAP-deleted),SMILES,SAM/MTA Ratio (PRMT5 [1]),MTAP Intact/Deleted Ratio (HAP1 MTAP-deleted)
50 to 500 nM,500 to 5000 nM,50 to 500 nM,< 1000 nM,< 1000 nM,"COCCN(C)c1nc(NC2COC2)cc(C(=O)NC[C@H](O)CN2CCc3cc(OCc4cnco4)ccc3C2)n1 [Compound 295, (S)—N-(2-hydroxy-3-(6-(oxazol-5-ylmethoxy)-3N-dihydroisoquinolin-2(1H)-yl)propyl)-2-((2-methoxyethyl)(methyl)amino)-6-(oxetan-3-ylamino)pyrimidine-4-carboxamide]",A (a Ki ratio greater than or equal to 10 fold between the Ki in the presence of SAM and the Ki in the presence of MTA),C* (an IC50 ratio of less than 3 fold between the IC50 in the HAP1 MTAP-intact cell line and the HAP1 MTAP-deleted cell line)
50 to 500 nM,500 to 5000 nM,50 to 500 nM,≥ 10000 nM,1000 to 10000 nM,"CC(C)N1CCN(c2nc(NC3COC3)cc(C(=O)NC[C@H](O)CN3CCc4cc(OCc5cnco5)ccc4C3)n2)CC1 [Compound 296, (S)—N-(2-hydroxy-3-(6-(oxazol-5-ylmethoxy)-3N-dihydroisoquinolin-2(1H)-yl)propyl)-2-(4-isopropylpiperazin-1-yl)-6-(oxetan-3-ylamino)pyrimidine-4-carboxamide]",A (a Ki ratio greater than or equal to 10 fold between the Ki in the presence of SAM and the Ki in the presence of MTA),C* (an IC50 ratio of less than 3 fold between the IC50 in the HAP1 MTAP-intact cell line and the HAP1 MTAP-deleted cell line)
50 to 500 nM,500 to 5000 nM,50 to 500 nM,≥ 10000 nM,1000 to 10000 nM,"O=C(NC[C@H](O)CN1CCc2c(ccc(OCc3cnco3)c2Cl)C1)c1cc(NC2COC2)nc(N2CCN(C(=O)C3CC3)CC2)n1 [Compound 297, (S)—N-(3-(5-chloro-6-(oxazol-5-ylmethoxy)-3N-dihydroisoquinolin-2(1H)-yl)-2-hydroxypropyl)-2-(4-(cyclopropanecarbonyl)piperazin-1-yl)-6-(oxetan-3-ylamino)pyrimidine-4-carboxamide]",A (a Ki ratio greater than or equal to 10 fold between the Ki in the presence of SAM and the Ki in the presence of MTA),C* (an IC50 ratio of less than 3 fold between the IC50 in the HAP1 MTAP-intact cell line and the HAP1 MTAP-deleted cell line)
500 to 5000 nM,≥ 5000 nM,500 to 5000 nM,≥ 10000 nM,1000 to 10000 nM,"O=C(NC[C@H](O)CN1CCc2c(ccc(OCc3cnco3)c2Cl)C1)c1cc(NC2COC2)nc(N2CCOCC2)n1 [Compound 298, (S)—N-(3-(5-chloro-6-(oxazol-5-ylmethoxy)-3,4-dihydroisoquinolin-2(1H)-yl)-2-hydroxypropyl)-2-morpholino-6-(oxetan-3-ylamino)pyrimidine-4-carboxamide]",A (a Ki ratio greater than or equal to 10 fold between the Ki in the presence of SAM and the Ki in the presence of MTA),C* (an IC50 ratio of less than 3 fold between the IC50 in the HAP1 MTAP-intact cell line and the HAP1 MTAP-deleted cell line)
50 to 500 nM,500 to 5000 nM,50 to 500 nM,≥ 10000 nM,1000 to 10000 nM,"CCN1CCN(c2cc(C(=O)NC[C@H](O)CN3CCc4c(ccc(OCc5cnco5)c4Cl)C3)cc(NC3CCC3)n2)CC1 [Compound 299, (S)—N-(3-(5-chloro-6-(oxazol-5-ylmethoxy)-3N-dihydroisoquinolin-2(1H)-yl)-2-hydroxypropyl)-2-(cyclobutylamino)-6-(4-ethylpiperazin-1-yl)isonicotinamide]",A (a Ki ratio greater than or equal to 10 fold between the Ki in the presence of SAM and the Ki in the presence of MTA),B* (an IC50 ratio greater than or equal to 3 fold but lower than 10 fold between the IC50 in the HAP1 MTAP-intact cell line and the HAP1 MTAP-deleted cell line)
50 to 500 nM,500 to 5000 nM,50 to 500 nM,≥ 10000 nM,≥ 10000 nM,"CC(=O)N1CCN(c2nc(NC3COC3)cc(C(=O)NC[C@H](O)CN3CCc4c(ccc(OCc5cnco5)c4Cl)C3)n2)CC1 [Compound 300, (S)-2-(4-acetylpiperazin-1-yl)-N-(3-(5-chloro-6-(oxazol-5-ylmethoxy)-3,4-dihydroisoquinolin-2(1H)-yl)-2-hydroxypropyl)-6-(oxetan-3-ylamino)pyrimidine-4-carboxamide]",A (a Ki ratio greater than or equal to 10 fold between the Ki in the presence of SAM and the Ki in the presence of MTA),C* (an IC50 ratio of less than 3 fold between the IC50 in the HAP1 MTAP-intact cell line and the HAP1 MTAP-deleted cell line)
